In ChEMBL document CHEMBL4425143, “Design and synthesis of new homo and hetero bis-piperazinyl-1-propanone derivatives as 5-HT7R selective ligands over 5-HT1AR” (Bioorg Med Chem Lett, 2016) one finds Ki, inhibition and pKa data, which are given here for 20 compounds.

In data set [1] the target is T1, 5-hydroxytryptamine receptor 7 (Homo sapiens, UniProt P34969). The experiment in a line: Displacement of [3H]-5-HT from human 5-HT7 receptor expressed in CHOK1 cell membranes after 30 mins by liquid scintillation spectrometry.
T1 sequence (P34969 whole entry): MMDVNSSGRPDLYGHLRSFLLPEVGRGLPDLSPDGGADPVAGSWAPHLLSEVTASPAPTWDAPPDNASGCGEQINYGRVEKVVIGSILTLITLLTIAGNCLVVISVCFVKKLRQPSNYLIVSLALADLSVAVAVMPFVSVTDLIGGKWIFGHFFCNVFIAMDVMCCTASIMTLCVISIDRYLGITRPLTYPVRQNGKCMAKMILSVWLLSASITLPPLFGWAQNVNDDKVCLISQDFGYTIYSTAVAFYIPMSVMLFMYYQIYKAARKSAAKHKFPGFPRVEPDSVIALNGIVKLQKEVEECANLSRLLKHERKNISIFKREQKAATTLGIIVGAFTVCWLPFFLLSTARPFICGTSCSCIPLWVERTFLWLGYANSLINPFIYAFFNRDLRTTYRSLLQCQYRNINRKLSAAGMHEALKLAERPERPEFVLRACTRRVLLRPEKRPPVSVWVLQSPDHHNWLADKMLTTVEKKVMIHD
In data set [2] the target is T2, 5-hydroxytryptamine receptor 1A (Homo sapiens, UniProt P08908).
T2 sequence (P08908 whole entry): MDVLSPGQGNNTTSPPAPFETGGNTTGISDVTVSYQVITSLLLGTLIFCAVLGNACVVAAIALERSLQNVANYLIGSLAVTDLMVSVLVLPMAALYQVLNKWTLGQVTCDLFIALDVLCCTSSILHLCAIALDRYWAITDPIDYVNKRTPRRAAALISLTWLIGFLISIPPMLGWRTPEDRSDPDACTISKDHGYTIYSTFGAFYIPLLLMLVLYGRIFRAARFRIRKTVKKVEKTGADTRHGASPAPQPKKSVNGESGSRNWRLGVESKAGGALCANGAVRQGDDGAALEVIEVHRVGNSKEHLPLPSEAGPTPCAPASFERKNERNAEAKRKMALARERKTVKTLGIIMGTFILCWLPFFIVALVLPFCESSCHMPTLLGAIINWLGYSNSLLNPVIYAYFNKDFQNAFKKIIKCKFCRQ
The experiment in a line: Displacement of [3H]-8-OH-DPAT from human 5-HT1A receptor expressed in CHOK1 cell membranes after 30 mins by liquid scintillation spectrometry.

The target in data set [3] is T3, 5-hydroxytryptamine receptor 1A (Homo sapiens) (UniProt P08908).
T3 sequence (whole entry): T2 sequence (P08908 whole entry)
The experiment in a line: Displacement of [3H]-8-OH-DPAT from human 5-HT1A receptor expressed in CHOK1 cell membranes at 10^-5M after 30 mins by liquid scintillation spectrometry.

Data set [4] is described as follows: Dissociation constant, pKa of the compound at pH 7.4. In kind it is physicochemical.
In data set [5] the target is T1, 5-hydroxytryptamine receptor 7. Put plainly: Displacement of [3H]-5-HT from human 5-HT7 receptor expressed in CHOK1 cell membranes at 10^-5M after 30 mins by liquid scintillation spectrometry.

As for `O=C(CCN1CCN(c2ccc(Cl)cc2)CC1)N1CCN(c2cccc(Cl)c2)CC1`, the Ki was found to be 2370 nM in data set [1] and 302 nM in data set [2].
For the compound `O=C(CCCCN1CCN(c2ccccc2)CC1)N1CCN(c2ccccc2)CC1`, the Ki in data set [1] was 197 nM; in data set [2], 350 nM.
For the compound `COc1ccccc1N1CCN(C(=O)CCN2CCN(Cc3ccccc3)CC2)CC1`, in data set [1], affinity was put at a Ki of 24.2 nM. The compound also had an inhibition in data set [3] below 50%.
For `O=C(CCN1CCN(Cc2ccccc2)CC1)N1CCN(c2ccccc2)CC1`, the pKa in data set [4] amounted to 8.55. In data set [1], this compound displayed an inhibitory constant (Ki) of 52 nM. For the same compound, in data set [3], the inhibition was below 50%.
Turning to `O=C(CCN1CCN(c2cccc(Cl)c2)CC1)N1CCN(c2ccccc2)CC1`, the inhibition constant (Ki) in data set [1] turned out to be 32.7 nM; in data set [2], 33.5 nM.
`O=C(CCN1CCN(Cc2ccccc2)CC1)N1CCN(c2ccc(Cl)cc2)CC1` registered a Ki in data set [1] of 36.6 nM. The inhibition in data set [3] is below 50%.
In data set [2], `O=C(CCN1CCN(c2ccccc2)CC1)N1CCN(c2cccc(Cl)c2)CC1` returned a Ki of 1070 nM. The compound also had an inhibition in data set [5] below 50%.
As to `O=C(CCNCc1ccccc1)NCc1ccccc1`, the Ki amounted to 176 nM in data set [1] and 3750 nM in data set [2].
Regarding `O=C(CCN1CCN(Cc2ccccc2)CC1)N1CCN(c2ccccc2Cl)CC1`, affinity in data set [1] was put at a Ki of 50.2 nM. The compound further showed an inhibition in data set [3] below 50%.
In data set [4], `O=C(CCN1CCN(c2ccccc2)CC1)N1CCN(c2ccccc2)CC1` registered a pKa of 8.11. Besides, the results for the Ki in data set [1] and in data set [2] were 26.2 nM and 272 nM, respectively.
As to `COc1ccc(N2CCN(C(=O)CCN3CCN(Cc4ccccc4)CC3)CC2)cc1`, the inhibition in data set [5] and in data set [3] was below 50% each time.
Regarding `O=C(CCN1CCN(Cc2ccccc2)CC1)N1CCN(c2cccc(Cl)c2)CC1`, the Ki turned out to be 54.7 nM in data set [1] and 101 nM in data set [2].
`O=C(CCNCc1ccccc1)N1CCN(c2ccccc2)CC1`: the inhibition constant (Ki) in data set [2] is 938 nM. In data set [5], this compound came in with an inhibition below 50%.
`O=C(CCN1CCN(c2ccc(Cl)cc2)CC1)N1CCN(c2ccccc2)CC1`: the results for the Ki in data set [1] and in data set [2] were 462 nM and 1680 nM, respectively.
The like results for `O=C(CCN1CCN(c2cccc(Cl)c2)CC1)N1CCN(c2cccc(Cl)c2)CC1` were, in that order, 2760 nM and 142 nM.
Consider `CCOc1ccccc1N1CCN(CCC(=O)N2CCN(c3ccccc3)CC2)CC1`, for which the values for the Ki in data set [1] and in data set [2] were 80.3 nM and 81.8 nM, respectively.
For the compound `O=C(CCN1CCN(Cc2ccccc2)CC1)N1CCN(c2ccccn2)CC1`, the Ki in data set [1] came to 29.5 nM. This compound returned an inhibition in data set [3] below 50%.
As to `O=C(CCN1CCN(Cc2ccccc2)CC1)NCc1ccccc1`, the Ki came out at 4.34 nM in data set [1] and 0.34 nM in data set [2].
The like results for `CCOc1ccccc1N1CCN(CCC(=O)N2CCN(c3cccc(Cl)c3)CC2)CC1` were, in that order, 119 nM and 15.2 nM.
Regarding `O=C(CCN1CCN(Cc2ccccc2)CC1)N1CCN(c2ncccn2)CC1`, in data set [1], the affinity corresponds to a Ki of 23.5 nM. Further, in data set [3], the inhibition was below 50%.
